This note sets out measurements from US12311019B2, “Vaccine composition and uses thereof” (Imugene Limited, priority 2018, dated 2025).

Entries after “also recorded” stand apart in the source; their conditions may differ.

Assay [1] has as its system rat anti-mouse PD1 monoclonal antibody (mAb) (Biolegend, clone 29F.1A12). Kind of assay: Colony blot assay of E. coli clones expressing GST-fused overlapping mPD1 peptides. The format is binding. The conditions noted are these: GST-fused 15-mer. The source says:
The protein sequence corresponding to the extracellular domain of mouse PD-1 (Q02242; Uniprot) was electronically back-translated into DNA sequences (ATG:Biosynthetics GmbH; Merzhausen, Germany). The protein-coding DNA sequences were partitioned into uniformly sized peptide-CDS as overlapping peptides in 15 amino acids (aa) length, with an offset of 3 aa, and the resulted DNA sequences were inserted into the expression vector pEPX-1 (ATG:Biosynthetics GmbH; Merzhausen, Germany). […] Expression vectors were used for transformation of E. coli strain BL21. Colonies (clones) of E. coli harbouring the expression vectors were picked from plates supplemented with Kanamycin and used for screening by colony blot assay. A colony harbouring the expression vector with no insert (i.e. control) was also picked.
The clones of interest were replicated onto nitrocellulose membranes and lysed with lysis solution (Tris-HCl pH 8.0 50 mM, Lysozyme 200 μg/ml), followed by three cycles of freezing at −80C and thawing at 37C. After the last step of thawing, the membranes were incubated with the blocking solution containing PBS-5% skim milk. The blocking solution was discarded and the membranes were incubated for 2 h at RT with rat anti-mouse PD1 monoclonal antibody (mAb) (Biolegend, clone 29F.1A12). […]

Assay [2] has as its target T1, Jurkat T cells expressing mPD1 (Mus musculus, UniProt Q02242).
T1 construct: expressed in transfected cells; host or cells: Jurkat E6.1 NF-kB::eGFP reporter T cells (human)
T1 sequence (Q02242 25-288): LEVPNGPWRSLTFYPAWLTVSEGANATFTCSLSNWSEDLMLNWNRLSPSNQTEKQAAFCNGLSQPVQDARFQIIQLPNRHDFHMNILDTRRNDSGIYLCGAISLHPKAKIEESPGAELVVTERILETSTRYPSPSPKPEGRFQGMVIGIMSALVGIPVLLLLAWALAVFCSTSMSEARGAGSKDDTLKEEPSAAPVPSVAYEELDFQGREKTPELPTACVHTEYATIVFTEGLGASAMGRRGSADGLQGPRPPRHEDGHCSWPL
Put plainly: Inhibition of anti-mouse PD1 mAb binding to mPD1-positive Jurkat T cells. The format is cell-based. To be noted: mAb pre-incubated with different concentrations of JT-mPD1. The method, then: To produced T cells expressing mouse PD-1, Jurkat E6.1 NF-κB::eGFP reporter T cell line and the K562 stimulator cell line were cultured as previously described (Battin et al. PLoS One, 2017, 12(5):e0178220; PMID: 28542462). JE6.1 NF-kB::eGFP reporter cells expressing mouse PD-1 have been previously described (Jutz et al. Oncotarget, 2017, 8(39):64892-64906; PMID: 29029399). T cell stimulator cells, based on the K562 cell line (K562S), were generated by retrovirally transducing a CD5L-OKT3scFv-CD14 construct encoding an anti-human CD3 single chain fragment fused to human CD14 (Leitner et al. J. Immunol. Methods, 2010, 362(1-2):131-141; PMID: 20858499). K562S stimulate human T cells and T cell lines by ligating their TCR-CD3 complex. In order to separate stimulator cells from reporter cells, K562S were engineered to constitutively express a red fluorescent protein (RFP). […] To confirm cell surface expression of respective molecules, a PE-conjugated anti-mPD-1 antibody (29F.1A12) from Biolegend (San Diego, CA) was used. Membrane-bound anti-CD3 fragment on K562S cells was detected with a PE-conjugated goat-anti-mouse IgG (H+L) antibody (Jackson ImmunoResearch, West Grove, PA). […] Data was analysed using FlowJo software (version 10.0.8., Tree Star, Ashland, OR) and Graphpad Prism (version 5, GraphPad Software, Inc., La Jolla, CA). […]

Turning to “ISLHPKAKIEESPGA (listed as Mus musculus) [JT-mPD1, amino acid residues 126-140 of mouse PD1 (Uniprot Q02242)]”, the “reactivity to the rat anti-mouse PD1 monoclonal antibody” value in assay [1] is “reactive”. The “inhibition of binding of anti-mouse PD1 mAb to mPD1-positive Jurkat T cells” value in assay [2] is given as “dose-dependently inhibited; also recorded: inhibited dose-dependently”.
